Measurements: paper PMC4847155 (Biochemical Journal, 2016)
pEC50: −log10 of the molar value. Where a name gives a salt, the structure may show the parent alone. Read-outs that look alike come from different tables or passages of the source.

How the values were obtained:
C126A Bax = C126A Bax (Homo sapiens, UniProt Q07812, C126A); conditions: mitochondria, 20 nM Bax, 10 μM compound
Wt BMK cells = assay: Live-cell imaging of cell death; type: cell-based, mouse; conditions: for effect on apoptosis of Wt compared with DKO cells (annexin V staining): Wt versus DKO BMK cells, among the five compounds
[1] = system: Bax−/− Bak−/− (DKO) BMK cells; assay: Live-cell imaging of cell death; type: cell-based, mouse; conditions: 24 h
Bax [2] = molecular target: T1, Bax (Homo sapiens, UniProt Q07812); type: biochemical; conditions: 100 nM Bax, 10 μM compound or 20 nM cBid/Bim, no membranes, DSS
T1 sequence (Q07812 whole entry): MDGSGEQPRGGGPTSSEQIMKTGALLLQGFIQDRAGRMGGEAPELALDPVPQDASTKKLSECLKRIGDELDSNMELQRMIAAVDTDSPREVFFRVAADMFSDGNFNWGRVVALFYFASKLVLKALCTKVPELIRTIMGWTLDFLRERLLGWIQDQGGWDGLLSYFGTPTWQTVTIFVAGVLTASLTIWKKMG

Bax [3] = molecular target: T1, Bax; type: biochemical; conditions: 100 nM Bax, 10 μM compound, DSS
Bax [4] = molecular target: T1, Bax; assay: biochemical; type: biochemical
Bax [5] = molecular target: T1, Bax; assay: biochemical

C126A Bax, sequence (Q07812 whole entry C126A): as the sequence (Q07812 whole entry) above, with C126A counted along it

In the case of `O=c1c2ccccc2[se]n1-c1ccccc1` [Ebselen, ebselen], the “activation of C126A Bax” value (C126A Bax) was “almost completely resistant”, the toxicity to cells (Wt BMK cells; Wt BMK cells, 24 h) was “not toxic” and the toxicity to cells ([1]; DKO BMK cells) was “not toxic”. The “formation of dimers and higher-order Bax oligomers in solution” value (Bax [2]) was “pronounced effects”.
With `CC(=O)[O][Hg][c]1ccccc1` [PMA, phenylmercuric acetate] the “Bax oligomerization (higher-order complexes) in liposomes” value (Bax [3]) was “most pronounced effects”, the pEC50 (Bax [4]; read-out: EC50 in mitochondria, 20 nM Bax, mitochondria from Bax−/− Bak−/− BMK cells, Smac–mCherry release) was 5.89 and the “effect on apoptosis of Wt compared with DKO cells (annexin V staining)” value (Wt BMK cells) was “most pronounced effects”.
In the case of `CC1=CC(=O)c2c(O)cccc2C1=O` [Plumbagin, plumbagin], the pEC50 (Bax [5]) was under 5.52, the pEC50 (Bax [4]) was 5.82 and the “effect on apoptosis of Wt compared with DKO cells (annexin V staining)” value (Wt BMK cells) was “most pronounced effects”.
In the case of `CC(C)N(CCC(=O)c1ccc2ccccc2c1)Cc1ccccc1` [ZM, ZM39923 hydrochloride], the pEC50 (Bax [5]) was under 5.52, the “activation of C126A Bax” value (C126A Bax) was “almost completely resistant” and the pEC50 (Bax [4]) was 5.46. It also gave a pEC50 (Wt BMK cells; Mus musculus, 24 h, read-out: EC50 of cell kill) of about 5.00 and a pEC50 ([1]; Mus musculus, read-out: EC50 of cell kill) of about 5.00.
For “Bim: pro-apoptotic BH3 protein, recombinant, positive control for Bax oligomerization”, the “formation of dimers and higher-order Bax oligomers in solution” value (Bax [2]) was “no effects”.
